According to PubChem BioAssay (NCI):
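Each compound was tested at five concentrations against cells in 96-well plates for 48 hours. TGI is the concentration that stops growth completely.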

Experiments:
Assay in all cases: NCI anticancer screen, dose series, 48 h
[1] = system: OVCAR-5 ovarian
[2] = system: SF-268 CNS
[3] = system: HOP-92 NSCLC
[4] = system: NCI-H460 lung
[5] = system: HT29 colon
[6] = system: MALME-3M melanoma
[7] = system: SW-620 colon
[8] = system: SR leukemia
[9] = system: SK-OV-3 ovarian
[10] = system: U251 CNS
[11] = system: OVCAR-3 ovarian
[12] = system: RPMI-8226 leukemia
[13] = system: NCI-H23 lung
[14] = system: DU-145 prostate
[15] = system: SK-MEL-28 melanoma
[16] = system: HCT-116 colon
[17] = system: UACC-257 melanoma
[18] = system: NCI-H226 lung
[19] = system: SNB-75 CNS
[20] = system: HS 578T breast

CCOC1=NC(O)c2cccn2-c2sccc21 (stereo not drawn) was tested, and the TGI [1] was over 100 µM, the TGI [2] was over 100 µM and the TGI [3] was over 100 µM. For the same compound, the TGI [4] was over 100 µM, the TGI [5] was over 100 µM and the TGI [6] was over 100 µM. The TGI [7] was over 100 µM, the TGI [8] was over 100 µM and the TGI [9] was over 100 µM. It also gave a TGI [10] of over 100 µM, a TGI [11] of over 100 µM and a TGI [12] of over 100 µM. It also gave a TGI [13] of over 100 µM, a TGI [14] of over 100 µM and a TGI [15] of over 100 µM. The TGI [16] was over 100 µM.

COC(=O)CC1N=C(NC#N)N(CCc2c[nH]c3ccccc23)C1=O (stereo not drawn) showed a TGI [1] of over 100 µM, a TGI [2] of over 100 µM and a TGI [17] of over 100 µM. The TGI [4] was over 100 µM, the TGI [5] was over 100 µM and the TGI [7] was over 100 µM. The TGI [8] was over 100 µM, the TGI [9] was over 100 µM and the TGI [10] was over 100 µM. For the same compound, the TGI [11] was over 100 µM, the TGI [12] was over 100 µM and the TGI [13] was over 100 µM. The TGI [15] was over 100 µM, the TGI [18] was over 100 µM and the TGI [19] was over 100 µM. It also gave a TGI [16] of over 100 µM.

Work on CC(=O)O[C@H]1C(=O)[C@@]2(C)[C@H]([C@H](OC(=O)c3ccoc3)[C@]3(O)C[C@H](OC(=O)[C@H](O)[C@@H](NC(=O)c4ccccc4)c4ccccc4)C(C)=C1C3(C)C)[C@]1(OC(C)=O)CO[C@@H]1C[C@@H]2O yielded a TGI [1] of over 12.5 µM, a TGI [20] of 0.612 µM and a TGI [2] of over 12.5 µM. The TGI [3] was over 12.5 µM, the TGI [17] was over 12.5 µM and the TGI [4] was over 3.73 µM. It also gave a TGI [5] of over 12.5 µM, a TGI [7] of over 12.5 µM and a TGI [9] of over 3.15 µM. It also gave a TGI [10] of over 12.5 µM, a TGI [11] of 0.752 µM and a TGI [13] of over 12.5 µM. It also gave a TGI [14] of over 12.5 µM, a TGI [15] of over 12.5 µM and a TGI [19] of 2.38 µM. The TGI [16] was 0.366 µM.

In the case of CCN(CC)C1CC(O[C@H]2C[C@](O)(C(=O)CO)Cc3c(O)c4c(c(O)c32)C(=O)c2c(OC)cccc2C4=O)OC(C)C1O (stereo partly drawn), the TGI [1] is reported as 0.561 µM, the TGI [2] is reported as 0.314 µM and the TGI [3] is reported as 0.268 µM. It also gave a TGI [17] of 0.305 µM, a TGI [4] of 0.146 µM and a TGI [5] of 1.64 µM. It also gave a TGI [6] of 0.166 µM, a TGI [7] of 0.328 µM and a TGI [9] of 9.62 µM. For the same compound, the TGI [10] was 1.19 µM, the TGI [11] was 0.77 µM and the TGI [12] was 0.31 µM. For the same compound, the TGI [13] was 0.154 µM, the TGI [15] was 0.216 µM and the TGI [18] was 0.044 µM. It also gave a TGI [19] of 0.184 µM and a TGI [16] of 1.03 µM.

Work on CN(C)CC1CCCC(CN(C)C)C1OC(=O)c1ccccc1 (stereo not drawn) yielded a TGI [1] of over 100 µM, a TGI [2] of over 100 µM and a TGI [3] of over 100 µM. For the same compound, the TGI [17] was over 100 µM, the TGI [4] was over 100 µM and the TGI [5] was over 100 µM. For the same compound, the TGI [6] was over 100 µM, the TGI [7] was over 100 µM and the TGI [8] was over 100 µM. For the same compound, the TGI [9] was over 100 µM, the TGI [10] was over 100 µM and the TGI [11] was over 100 µM. It also gave a TGI [12] of over 100 µM, a TGI [13] of over 100 µM and a TGI [15] of over 100 µM. It also gave a TGI [18] of over 100 µM, a TGI [19] of over 100 µM and a TGI [16] of over 100 µM.

For CCN(CC)CCSc1c2cc(OC)ccc2nc2ccc(OC)cc12, the TGI [1] was 44.5 µM, the TGI [2] was 12.7 µM and the TGI [3] was 4.61 µM. The TGI [17] was 16.4 µM, the TGI [4] was over 61 µM and the TGI [6] was 7.74 µM. It also gave a TGI [7] of over 100 µM, a TGI [8] of over 21.8 µM and a TGI [9] of over 54.4 µM. For the same compound, the TGI [10] was over 53.1 µM, the TGI [11] was 8.07 µM and the TGI [12] was 6.96 µM. For the same compound, the TGI [13] was over 25.7 µM, the TGI [14] was 3.56 µM and the TGI [15] was 32.7 µM. The TGI [18] was 53.8 µM, the TGI [19] was 31.8 µM and the TGI [16] was 3.42 µM.

Cn1c([C@H](C#N)c2ncccc2[N+](=O)[O-])nc2ccccc21 showed a TGI [1] of over 100 µM, a TGI [20] of 75.1 µM and a TGI [2] of over 100 µM. The TGI [3] was over 100 µM, the TGI [17] was over 100 µM and the TGI [4] was over 100 µM. For the same compound, the TGI [5] was over 100 µM, the TGI [6] was over 100 µM and the TGI [7] was over 100 µM. It also gave a TGI [8] of over 100 µM, a TGI [9] of over 100 µM and a TGI [10] of over 100 µM. For the same compound, the TGI [11] was over 100 µM, the TGI [12] was over 100 µM and the TGI [13] was over 100 µM. For the same compound, the TGI [15] was over 100 µM, the TGI [18] was over 100 µM and the TGI [19] was 67.1 µM. For the same compound, the TGI [16] was over 100 µM.

For Nc1ccc(Cc2c(N)[nH]c(=O)[nH]c2=O)cc1, the TGI [1] was over 100 µM, the TGI [20] was over 100 µM and the TGI [2] was over 100 µM. For the same compound, the TGI [3] was over 100 µM, the TGI [17] was over 100 µM and the TGI [4] was over 100 µM. The TGI [5] was over 100 µM, the TGI [6] was over 100 µM and the TGI [7] was over 100 µM. The TGI [9] was over 100 µM, the TGI [10] was over 100 µM and the TGI [11] was over 100 µM. For the same compound, the TGI [12] was over 100 µM, the TGI [13] was over 100 µM and the TGI [14] was over 100 µM. The TGI [15] was over 100 µM, the TGI [18] was over 100 µM and the TGI [16] was over 100 µM.

For Nc1nc(-[n+]2ccc(-c3ccncc3)cc2)nc(Cl)c1Cl, the TGI [1] was over 100 µM, the TGI [2] was 34.6 µM and the TGI [3] was 48 µM. It also gave a TGI [17] of 40.8 µM, a TGI [4] of over 100 µM and a TGI [5] of over 100 µM. It also gave a TGI [6] of over 100 µM, a TGI [7] of over 100 µM and a TGI [8] of 41 µM. The TGI [9] was over 100 µM, the TGI [10] was over 100 µM and the TGI [11] was 33.5 µM. For the same compound, the TGI [12] was over 100 µM, the TGI [13] was 54.9 µM and the TGI [14] was over 100 µM. It also gave a TGI [15] of over 100 µM, a TGI [18] of over 100 µM and a TGI [16] of over 100 µM.

C[Si](C)(C)OC1CC(=O)OC1n1cc(F)c(=O)[nH]c1=O (stereo not drawn) gave a TGI [1] of over 100 µM, a TGI [2] of over 100 µM and a TGI [17] of over 100 µM. The TGI [4] was over 100 µM, the TGI [5] was over 100 µM and the TGI [6] was over 100 µM. It also gave a TGI [7] of over 56 µM, a TGI [8] of 9.38 µM and a TGI [9] of over 100 µM. For the same compound, the TGI [10] was over 100 µM, the TGI [11] was over 100 µM and the TGI [12] was 40.4 µM. For the same compound, the TGI [13] was over 100 µM, the TGI [15] was over 100 µM and the TGI [18] was over 100 µM. The TGI [19] was over 100 µM and the TGI [16] was over 69 µM.

CC(=O)O[C@H]1C(=O)[C@@]2(C)C(C(OC(=O)c3ccccc3)[C@]3(O)CC(OC(=O)C(O)C(NC(=O)c4ccc(C(F)(F)F)cc4)c4ccccc4)C(C)=C1C3(C)C)[C@]1(OC(C)=O)CO[C@@H]1C[C@@H]2O (stereo partly drawn) gave a TGI [1] of 3.95 µM, a TGI [2] of 5.3 µM and a TGI [3] of over 37.5 µM. It also gave a TGI [17] of over 37.5 µM, a TGI [4] of 0.783 µM and a TGI [5] of 0.237 µM. The TGI [6] was 13.7 µM, the TGI [7] was 0.763 µM and the TGI [8] was 4.96 µM. It also gave a TGI [9] of 0.946 µM, a TGI [10] of 2.43 µM and a TGI [11] of 0.194 µM. For the same compound, the TGI [12] was 5.88 µM, the TGI [13] was 1.06 µM and the TGI [15] was 17.8 µM. The TGI [18] was 4.96 µM, the TGI [19] was 0.00891 µM and the TGI [16] was 0.196 µM.

With CCOc1ncn(-c2ccc(NC(=S)NC3OC(CO)C(O)C(O)C3O)cc2)n1 (stereo not drawn) the TGI [1] was over 100 µM, the TGI [2] was over 100 µM and the TGI [3] was over 100 µM. For the same compound, the TGI [17] was over 100 µM, the TGI [4] was over 100 µM and the TGI [5] was over 100 µM. It also gave a TGI [7] of over 100 µM, a TGI [8] of over 100 µM and a TGI [9] of over 100 µM. It also gave a TGI [10] of over 100 µM, a TGI [11] of over 100 µM and a TGI [12] of over 100 µM. For the same compound, the TGI [13] was over 100 µM, the TGI [14] was over 100 µM and the TGI [15] was over 100 µM. For the same compound, the TGI [19] was over 100 µM and the TGI [16] was over 100 µM.
